The values below come from US9259002B2, “Herbicidal composition and method of use thereof” (Syngenta Crop Protection LLC, priority 2006, dated 2016).

Assay type in all cases: in vivo
In experiment [1] the test system is white clover (Trifolium repens). Description: Glasshouse trial, post-emergence control of white clover. As for the experimental part: A glasshouse trial was carried out. White clover seeds were sown into standard glasshouse potting mix (1:1 v/v Promix:Vero sand soil) contained in 10 cm square plastic pots. Treatments were replicated three times. […] When used, dithiopyr was applied at a rate of 70 g ai/ha or 140 g ai/ha. The adjuvant system was X-77 at 0.1% v/v in deionised water. 200 liters of herbicide/adjuvant system was used per hectare. General weed control was evaluated at 10 and 16 days after treatment (DAT). It is noted that all herbicides were applied at reduced field rates because herbicide effects are magnified in a glasshouse environment. Rates were chosen to give a 50 to 70% level of control with herbicides applied alone as this allows for detection of any synergistic effect when tank mixtures are used. […] The results were evaluated using the Colby formula. The expected result for (A+B) is (A+B)−(A×B/100) where A and B are the ‘observed’ results for A and B on their own. […] A glasshouse trial was carried out as described in Example 1, but using triclopyr (in the form of Turflon®) instead of dithiopyr. A glasshouse trial was carried out as described in Example 2, but using fluoroxypyr (in the form of Spotlight®) instead of triclopyr.

The test system of experiment [2] is Medicago lupulina (black medic). Description: Glasshouse trial, post-emergence control of black medic. The following applies: for Expected control (Colby), Plus Mesotrione at 100 g ai/ha: Colby formula; for Actual control, Plus Mesotrione at 100 g ai/ha: post-emergence. As for the experimental part:
A glasshouse trial was carried out. White clover seeds were sown into standard glasshouse potting mix (1:1 v/v Promix:Vero sand soil) contained in 10 cm square plastic pots. Treatments were replicated three times. Mesotrione (in the form Callisto® 480SE) was applied post-emergence to white clover (Trifolium repens) at either 50 g ai/ha or 100 g ai/ha with or without dithiopyr (in the form Dimension®). When used, dithiopyr was applied at a rate of 70 g ai/ha or 140 g ai/ha. The adjuvant system was X-77 at 0.1% v/v in deionised water. 200 liters of herbicide/adjuvant system was used per hectare. General weed control was evaluated at 10 and 16 days after treatment (DAT). It is noted that all herbicides were applied at reduced field rates because herbicide effects are magnified in a glasshouse environment. Rates were chosen to give a 50 to 70% level of control with herbicides applied alone as this allows for detection of any synergistic effect when tank mixtures are used. […] The results were evaluated using the Colby formula. The expected result for (A+B) is (A+B)−(A×B/100) where A and B are the ‘observed’ results for A and B on their own. […] A glasshouse trial was carried out as described in Example 1, but using triclopyr (in the form of Turflon®) instead of dithiopyr. A glasshouse trial was carried out as described in Example 2, but using Medicago lupulina (black medic) of white clover. A glasshouse trial was carried out as described in Example 4, but using fluoroxypyr instead of triclopyr.

Experiment [3] concerns Eleusine indica (goosegrass). Description: Glasshouse trial, post-emergence control of goosegrass. The following applies: for Expected control (Colby), Plus Mesotrione at 200 g ai/ha: Colby formula; for Actual control, Plus Mesotrione at 200 g ai/ha: post-emergence.
The mark [4] stands for this setting: fluroxypyr 50 g ai/ha + mesotrione 100 g ai/ha.
Where [5] appears, read: triclopyr 140 g ai/ha + mesotrione 200 g ai/ha.
Setting [6] is: triclopyr 280 g ai/ha + mesotrione 200 g ai/ha.
[7] abbreviates: triclopyr 140 g ai/ha + mesotrione 100 g ai/ha.

Each structure is given as a SMILES string.

With `CSC(=O)c1c(C(F)F)nc(C(F)(F)F)c(C(=O)SC)c1CC(C)C` [Dithiopyr, S,S′-dimethyl 2-difluoromethyl-4-isobutyl-6-trifluoromethylpyridine-=3,5-dicarbothioate], the “Actual control, Plus Mesotrione at 50 g ai/ha” value in experiment [1] (dithiopyr 70 g ai/ha + mesotrione 50 g ai/ha tank mix, post-emergence, 10 DAT) is given as 46.7; in experiment [1] (dithiopyr 140 g ai/ha + mesotrione 50 g ai/ha tank mix, post-emergence, 10 DAT) it was 43.3. For the same compound, the “Expected control (Colby), Plus Mesotrione at 50 g ai/ha” value in experiment [1] (dithiopyr 70 g ai/ha + mesotrione 50 g ai/ha, 10 DAT, Colby formula) worked out at 37.4; in experiment [1] (dithiopyr 140 g ai/ha + mesotrione 50 g ai/ha, 10 DAT, Colby formula), 44.2. The “Actual control, Plus Mesotrione at 100 g ai/ha” value (“Actual control … at 100 g ai/ha” for short) in experiment [1] (dithiopyr 70 g ai/ha + mesotrione 100 g ai/ha tank mix, post-emergence, 10 DAT) is on record as 55.0; in experiment [1] (dithiopyr 140 g ai/ha + mesotrione 100 g ai/ha tank mix, post-emergence, 10 DAT), 46.7. Also, the “Expected control (Colby), Plus Mesotrione at 100 g ai/ha” value (from here on “Expected control … at 100 g ai/ha”) in experiment [1] (dithiopyr 70 g ai/ha + mesotrione 100 g ai/ha, 10 DAT, Colby formula) turned out to be 52.6; in experiment [1] (dithiopyr 140 g ai/ha + mesotrione 100 g ai/ha, 10 DAT, Colby formula), 57.8. Further, the “control of white clover on its own” value was found to be 18% in experiment [1] (dithiopyr alone, higher rate (140 g ai/ha), post-emergence) and 8% in experiment [1] (dithiopyr alone, lower rate (70 g ai/ha), post-emergence).
As to `Nc1c(Cl)c(F)nc(OCC(=O)O)c1Cl` [Fluroxypyr, [(4-amino-3,5-dichloro-6-fluoro-2-pyridinyl)oxy]acetic acid], the “Expected control … at 100 g ai/ha” value in experiment [1] (fluroxypyr 50 g ai/ha + mesotrione 100 g ai/ha, Colby formula) stood at 84; in experiment [2] (setting [4]), 85. In addition, the “Actual control … at 100 g ai/ha” value in experiment [1] (fluroxypyr 50 g ai/ha + mesotrione 100 g ai/ha, post-emergence) is reported as 91; in experiment [2] (setting [4]), 90.
As for `O=C(O)COc1nc(Cl)c(Cl)cc1Cl` [Triclopyr, [(3,5,6-trichloro-2-pyridyl)oxy]acetic acid], the “Expected control … at 100 g ai/ha” value is 84 in experiment [1] (triclopyr 140 g ai/ha + mesotrione 100 g ai/ha, Colby formula) and 91 in experiment [2] (setting [7]). In addition, the “Actual control … at 100 g ai/ha” value stood at 99 in experiment [1] (triclopyr 140 g ai/ha + mesotrione 100 g ai/ha, post-emergence) and 97 in experiment [2] (setting [7]). Besides, the “Expected control (Colby), Plus Mesotrione at 200 g ai/ha” value in experiment [1] (triclopyr 140 g ai/ha + mesotrione 200 g ai/ha, Colby formula) is 90; in experiment [3] (setting [5]) it was 32; in experiment [3] (setting [6]), 35. The “Actual control, Plus Mesotrione at 200 g ai/ha” value in experiment [1] (triclopyr 140 g ai/ha + mesotrione 200 g ai/ha, post-emergence) was 98; in experiment [3] (setting [5]) it was 42; in experiment [3] (setting [6]), 50.
As for `CS(=O)(=O)c1ccc(C(=O)C2C(=O)CCCC2=O)c([N+](=O)[O-])c1` [mesotrione, 2-(2′-nitro-4′-methylsulphonylbenzoyl)-1,3-cyclohexanedione], the “control of white clover on its own” value in experiment [1] (mesotrione alone, higher rate (100 g ai/ha), post-emergence) is reported as 48%; in experiment [1] (mesotrione alone, lower rate (50 g ai/ha), post-emergence), 32%.
